Source: patent publication US12109184B2, “Personalized methods of treating cancer” (CANCER RESEARCH TECHNOLOGY LIMITED, priority 2020, dated 2024)

How the values were obtained:
Assay type in all cases: cell-based
[1] = test system: MDA-MB-231, PANC-1, and MIAPaCa-2 cells; assay: CellROX assay on live cells, starvation-sensitive cell lines; conditions: cysteine starved, MTAP deleted cells, 18 h
Method: Cells were seeded as described above. Live cells were stained with Hoechst 33342 nuclear stain for 20 min. The medium was removed, and cells were stained in 100 μl medium containing CellTracker™ Green CMFDA Dye and Hoechst stain for 40 min. The cells were then washed with PBS, and 300 μl of the relevant experimental medium was added for 1 hour. Then, CellROX® Deep Red was spiked into the medium, and the cells were incubated for 40 min. The medium was removed, the cells were washed with PBS, and new relevant experimental medium including CellROX was added. The cells were imaged using an Operetta automated microscope platform set to 37° C. in 5% CO2 every hour for 16-24 hours. I

[2] = test system: MTAP-expressing HCT116 cells; assay: Cell counting during cysteine starvation, MTAP-expressing HCT116; conditions: −Cys with or without methionine
Description: [NT] Successfully transfected cells were selected with puromycin and grown as clonal colonies. Clones were selected based initially on MTA efflux measured by liquid chromatography mass spectrometry (LC-MS). Clones with greatest MTA efflux were selected, and methylthioadenosine phosphorylase knockout (MTAP-KO) was then confirmed by western blot. MTAP-KO HCT116 cells were transfected with pCMV-Hygro-MTAP and pCMV-Hygro-negative control vector, selected using hygromycin B, and grown as clonal colonies. Clones were selected based initially on MTA efflux measured by LC-MS. Clones with low MTA efflux were selected, then MTAP re-expression was confirmed by western blot. […] DAPI-stained cell nuclei were detected via microscopy. For experiments using spermine oxidase (SMOX) and polyamine oxidase (PAOX) inhibitors or MTOB, cells were pre-treated with stated concentrations for 16 hours in complete medium. After pre-treatment, cells were washed in PBS, and treatment was continued in complete or cysteine-free medium for stated times. After treatment was finished, cells were fixed and stained as described above. For experiments using MTA, polyamines, GPX4 and CSE inhibitors, treatment started at the same time as cysteine starvation. For experiments involving hypoxic conditions, cells were seeded in normoxic conditions and allowed to adhere for 24 hours before control and cysteine starvation medium was added and cells were immediately transferred either to a humidified cell culture incubator set to 37° C. in 20% O2 (normoxia), or a hypoxia chamber set to 37° C. in 1% O2 (hypoxia) for the stated times. Cells were fixed immediately and stained as described above.

[3] = test system: MDA-MB-231, MIAPaCa-2 and PANC-1 cells; assay: Cell counting during cysteine starvation, starvation-sensitive cell lines; conditions: medium without cysteine
Method: The base medium formulation contained 0.2 mM L-histidine, 0.4 mM L-isoleucine, 0.4 mM L-leucine, 0.4 mM L-lysine, 0.2 mM L-phenylalanine, 0.4 mM L-threonine, 0.08 mM L-tryptophan, 0.4 mM L-valine, 0.2 mM L-arginine, 2 mM L-glutamine, 0.2 mM L-tyrosine, 0.4 mM L-alanine, 0.3 mM L-proline, 0.15 mM L-glutamic acid, 0.1 mM L-aspartic acid, 0.2 mM L-asparagine, and 0.4 mM glycine.
DAPI-stained cell nuclei were detected via microscopy.
AMD1 inhibitor sardomozide/SAM486A, GPX4 inhibitor RSL3, and CSE inhibitor beta-cyano-L-alanine were used.
For experiments using spermine oxidase (SMOX) and polyamine oxidase (PAOX) inhibitors or MTOB, cells were pre-treated with stated concentrations for 16 hours in complete medium. After pre-treatment, cells were washed in PBS, and treatment was continued in complete or cysteine-free medium for stated times. After treatment was finished, cells were fixed and stained as described above. For experiments using MTA, polyamines, GPX4 and CSE inhibitors, treatment started at the same time as cysteine starvation. For experiments involving hypoxic conditions, cells were seeded in normoxic conditions and allowed to adhere for 24 hours before control and cysteine starvation medium was added and cells were immediately transferred either to a humidified cell culture incubator set to 37° C. in 20% O2 (normoxia), or a hypoxia chamber set to 37° C. in 1% O2 (hypoxia) for the stated times. Cells were fixed immediately and stained as described above.

CSCC[C@H](N)C(=O)O [methionine]
ROS levels (CellROX) in response to methionine concentration [1]: increased in a dose-dependent manner
effect of presence of methionine during cysteine starvation [2]: advantageous
sensitivity to cysteine starvation versus methionine concentration ([3]; methionine 0 to 10 μM, 17 h and 41 h): remained sensitive to cysteine starvation down to 5 μM methionine
sensitivity to cysteine starvation versus methionine concentration ([3]; methionine 10 μM-1000 μM, 20 h): remained highly sensitive
